Laboratory results reported in patent EP2252154B1, “METHOD FOR MINIMIZING THE CYTOTOXICITY OF THE EFFECTIVE AGENT IN A COMPOSITION THAT IS ADMINISTERED TO A MAMMAL OR GETS INTO CONTACT WITH A MAMMAL” (Oy Granula AB LTD, priority 2008, dated 2009).
Converted amounts (≈) assume the structure as drawn. Where two headings read alike, the source gives them in different places.

Tests used:
[1] = pure polyphenols; footnote 1: Willför et al., J. Agric. Food. Chem., 51, 7600-7606 (2003); cited from earlier work
[2] = pure polyphenols; footnote 1: Willför et al., J. Agric. Food. Chem, 51. 26 (2003); cited from earlier work
[3] = Antioxidative capacity: inhibition of the peroxidation of lipids; assay type: biochemical; conditions: pure polyphenols isolated from wood materials
[4] = Peroxide radicals capturing capacity; assay type: biochemical; conditions: pure polyphenols isolated from wood material; per gram
human keratinocyte cells = test system: human keratinocyte cells
Protocol: The composition of the individual compounds included in the compound mixture contained by the samples was in accordance with Table 3B. The cytotoxicity of the sample extracts and powders for human keratinocyte cells was measured. The employed measure of cytotoxicity was the total protein quantity created by the samples, when the samples were incubated together with human keratinocyte cells for a certain incubation time (24 h). For each sample, there was searched a limit value (EC20), by which 20% of the cultivated cells died.

For COc1cc(C[C@H]2CO[C@H](c3ccc(O)c(OC)c3)[C@H]2CO)ccc1O [Lariciresinol], the capturing capacity [1] is given as 2.7 mmol/g and the “EC50” value [2] is given as 0.126 µg/mL (≈ 0.35 µM).
In the case of COc1cc(CC2COC(=O)C2(O)Cc2ccc(O)c(OC)c2)ccc1O (stereo not shown) [Nortrachelogenin], the capturing capacity [1] is listed as 5.9 mmol/g and the “EC50” value [2] is listed as 0.053 µg/mL (≈ 0.142 µM).
In the case of O=C1c2c(O)cc(O)cc2O[C@H](c2ccc(O)c(O)c2)[C@H]1O [Taxifolin], the capturing capacity [1] is given as 16 mmol/g and the “EC50” value [2] is given as 0.046 µg/mL (≈ 0.151 µM).
With O=C1c2c(O)cc(O)cc2O[C@H](c2ccc(O)cc2)[C@H]1O [Dihydrokaempferol] the “EC50” value [3] was 0.488 µg/mL (≈ 1.69 µM) and the capturing capacity [4] was 0.78 mmol/g.
In the case of COc1cc(C[C@@H](CO)[C@H](CO)Cc2ccc(O)c(OC)c2)ccc1O [Secoisolariciresinol], the capturing capacity [1] is listed as 8.5 mmol/g and the “EC50” value [2] is listed as 0.037 µg/mL (≈ 0.102 µM).
For Oc1ccc([C@H]2Oc3c(ccc(O)c3O)[C@@H](O)[C@H]2O)cc1 [Teracasidine], the “EC50” value [3] was 0.05 µg/mL (≈ 0.172 µM) and the capturing capacity [4] was 7.8 mmol/g.
In the case of O=C1C[C@@H](c2ccccc2)Oc2cc(O)cc(O)c21 [Pinosembrin], the “EC50” value [3] is reported as 1.135 µg/mL (≈ 4.43 µM) and the capturing capacity [4] is reported as 0.49 mmol/g.
For COc1cc(C[C@H]2C(=O)OC[C@@H]2[C@H](O)c2ccc(O)c(OC)c2)ccc1O [Hydroxymatairesinol], the capturing capacity [1] is given as 5.6 mmol/g and the “EC50” value [2] is given as 0.058 µg/mL (≈ 0.155 µM).
In the case of Cc1cc(C(C)(C)C)c(O)c(C(C)(C)C)c1 [BTH, butylated hydroxytoluene], the “times more cytotoxic with respect to HMR extract mixtures” value (human keratinocyte cells; from Table 1) is reported as 50-100 times and the “EC20 ppm 24 h” value (human keratinocyte cells; human, 24 h) is reported as 5.50 ppm.
For Pinoresinol, the “EC50” value [3] was 0.02 µg/mL and the capturing capacity [4] was 7.8 mmol/g.
With COc1cc([C@H]2c3cc(O)c(OC)cc3C[C@@H](CO)[C@@H]2CO)ccc1O [Cyclolariciresinol] the “EC50” value [3] was 0.017 µg/mL (≈ 0.0472 µM) and the capturing capacity [4] was 12 mmol/g.
For COc1cc(C[C@H]2COC(=O)[C@@H]2Cc2ccc(O)c(OC)c2)ccc1O [Matairesinol], the capturing capacity [1] is given as 2.9 mmol/g and the “EC50” value [2] is given as 0.099 µg/mL (≈ 0.276 µM).
With Oc1cc(O)cc(/C=C/c2ccccc2)c1 [Pinosylvin] the “EC50” value [3] was 0.05 µg/mL (≈ 0.236 µM) and the capturing capacity [4] was 0.78 mmol/g.
For Oc1ccc([C@H]2Oc3c(ccc(O)c3O)[C@@H](O)[C@H]2O)cc1O [Melacasidine], the “EC50” value [3] was 0.036 µg/mL (≈ 0.118 µM) and the capturing capacity [4] was 20 mmol/g.
